According to PMC5267425, “Identification of small molecule modulators of HIV-1 Tat and Rev protein accumulation” (Retrovirology, 2017):

Tested on: cellular gene expression in HeLa rtTA HIV∆Mls cells

Question: What does the source list for `Cc1cc(NCc2cccnc2)n2ncc(-c3ccc(Cl)cc3)c2n1` [Compound 791, 3-(4-chlorophenyl)-5-methyl-N-(3-pyridinylmethyl)pyrazolo[1,5-a]pyrimidin-7-amine]?
Answer: SETMAR expression fold change: 0.745; SFPQ expression fold change: 0.604; SFRS13A expression fold change: 1.164; SH2D4A expression fold change: 1.164; SH3BGR Mean fold change: 1.680; SHPK expression fold change: 0.869; SIAH1 Mean fold change: 1.613; SIAH2 Mean fold change: 1.494; SIKE1 expression fold change: 1.279; SKA2 expression fold change: 0.700; SLC1A5 Mean fold change: 2.013; SLC6A9 Mean fold change: 1.846; SLC6A15 Mean fold change: 1.859; SLC9A3 Mean fold change: 1.796; SLC10A3 expression fold change: 0.873; SLC16A1 expression fold change: 1.148; SLC22A15 Mean fold change: 2.322; SLC25A23 expression fold change: 0.855; SLC26A11 expression fold change: 1.295; SLC29A1 expression fold change: 0.814; SLC35B3 expression fold change: 1.282; SLC38A6 expression fold change: 1.215; SLC39A6 expression fold change: 1.389; SMARCA1 expression fold change: 0.805; SMARCA5 expression fold change: 0.811; SMARCC1 expression fold change: 0.845; SMC2 expression fold change: 0.736; SMC4 expression fold change: 0.769; SMEK2 expression fold change: 1.332; SMS expression fold change: 0.802; SMTN expression fold change: 0.528; SNAPC5 Mean fold change: 1.498; SNX7 expression fold change: 0.747; SNX10 Mean fold change: 2.399; SOD1 expression fold change: 0.780; SOX12 expression fold change: 0.979; SPCS1 expression fold change: 1.045; SPR expression fold change: 0.726; SPRED2 Mean fold change: 2.080; SPRYD4 expression fold change: 0.835; SPTAN1 expression fold change: 0.613; SQSTM1 expression fold change: 1.336; SRPK1 expression fold change: 1.142; SS18L1 expression fold change: 1.184; SSR4 expression fold change: 1.121; ST5 expression fold change: 0.715; ST6GALNAC4 expression fold change: 1.270; ST7L expression fold change: 1.363; STAG3L4 Mean fold change: 1.432; STAMBP expression fold change: 1.360; STARD4 expression fold change: 0.603; STK24 expression fold change: 1.344; STK36 expression fold change: 1.268; STK38 expression fold change: 0.829; STK40 expression fold change: 1.375; STMN1 expression fold change: 0.737; STX4 expression fold change: 1.358; SUN1 expression fold change: 0.880; SUPT3H expression fold change: 1.089; SUPT16H expression fold change: 1.113; SWAP70 expression fold change: 0.801; SYNPO expression fold change: 0.615; TAB1 expression fold change: 1.071; TADA2B expression fold change: 1.205; TAF1C expression fold change: 1.085; TAF3 expression fold change: 1.132; TAF4B expression fold change: 0.875; TAGLN2 expression fold change: 0.573; TATDN1 Mean fold change: 1.544; TBC1D23 expression fold change: 0.831; TBC1D25 expression fold change: 0.892; TBCCD1 expression fold change: 1.231; TBCD expression fold change: 0.769; TBL1X expression fold change: 1.190; TBX1 expression fold change: 0.707; TCEA1 Mean fold change: 2.377; TCTA expression fold change: 0.691; TEX2 expression fold change: 1.153; TEX261 expression fold change: 0.826; TFAP2A expression fold change: 0.742; TGDS expression fold change: 1.239; TGFA Mean fold change: 2.015; THAP2 Mean fold change: 1.505; TIGD2 expression fold change: 1.326; TIGD6 Mean fold change: 1.617; TIMELESS expression fold change: 1.079; TIMM17B expression fold change: 1.193; TIMP4 Mean fold change: 2.098; TIPRL expression fold change: 1.158; TLE3 expression fold change: 0.824; TM4SF1 expression fold change: 0.658; TM4SF19 Mean fold change: 2.453; TM9SF4 expression fold change: 1.144; TMED9 expression fold change: 0.713; TMEM33 expression fold change: 1.367; TMEM51 expression fold change: 1.103; TMEM55A Mean fold change: 1.593; TMEM68 expression fold change: 1.389; TMEM69 expression fold change: 0.879; TMEM120B expression fold change: 1.358; TMEM126B expression fold change: 1.318; TMEM128 Mean fold change: 1.475; TMEM133 expression fold change: 0.678; TMEM134 expression fold change: 1.333; TMEM136 Mean fold change: 1.653; TMEM138 expression fold change: 1.174; TMEM167B expression fold change: 1.381; TMEM184B expression fold change: 0.777; TMSB10 expression fold change: 0.763; TNKS2 expression fold change: 1.115; TNS3 expression fold change: 0.625; TOM1 expression fold change: 1.142; TOP1 Mean fold change: 1.433; TOP2B expression fold change: 0.838; TOR3A Mean fold change: 2.169; TPD52 expression fold change: 0.814; TPK1 Mean fold change: 1.463; TRAPPC6B Mean fold change: 1.516; TRIB3 Mean fold change: 9.286; TRIM5 expression fold change: 0.541; TRIM8 expression fold change: 1.137; TRIM11 expression fold change: 1.129; TRIM38 expression fold change: 1.268; TRIP12 expression fold change: 0.897; TRIP13 expression fold change: 0.826; TRMT2A expression fold change: 1.232; TRNP1 expression fold change: 0.822; TRNT1 expression fold change: 1.353; TRUB2 expression fold change: 0.915; TSEN2 Mean fold change: 1.417; TSEN15 Mean fold change: 1.483; TSPAN14 expression fold change: 1.164; TSR2 expression fold change: 0.870; TSSK6 Mean fold change: 1.615; TTC9C expression fold change: 1.292; TTC13 Mean fold change: 1.539; TTC17 Mean fold change: 1.465; TTLL4 expression fold change: 1.144; TTRAP Mean fold change: 1.772; TUBA1C expression fold change: 0.608; TUBGCP4 expression fold change: 1.159; TXNDC11 expression fold change: 0.839; TXNRD2 expression fold change: 0.682; UBAP2L expression fold change: 0.784; UBAP2 expression fold change: 0.809; UBE2CBP expression fold change: 1.206; UBE2E3 expression fold change: 0.823; UBE2F expression fold change: 1.199; UBE3A expression fold change: 1.133; UBL5 expression fold change: 0.749; UBXN2B Mean fold change: 1.412; UNC13D expression fold change: 0.656; UPF1 expression fold change: 0.745; UPP1 Mean fold change: 1.696; USP3 expression fold change: 1.367; USP13 expression fold change: 0.835; USP43 expression fold change: 0.526; USP45 expression fold change: 1.299; VHL expression fold change: 1.356; VPS4B expression fold change: 0.923; VPS45 expression fold change: 1.169; WARS Mean fold change: 4.515; WBSCR16 expression fold change: 0.745; WDFY1 expression fold change: 1.061; WDR67 Mean fold change: 1.463; WDR73 expression fold change: 1.398; WDR85 Mean fold change: 1.430; WDR86 Mean fold change: 1.956; WI2-3658N16.1 Mean fold change: 2.029; XBP1 Mean fold change: 1.642; XPNPEP3 Mean fold change: 1.531; XPO5 expression fold change: 1.247; XPO7 expression fold change: 0.941; XPOT Mean fold change: 2.053; XRCC6BP1 expression fold change: 1.139; YAP1 expression fold change: 1.104; YARS Mean fold change: 1.734; ZBED1 expression fold change: 0.668; ZBED5 expression fold change: 1.276; ZBTB8A expression fold change: 1.143; ZBTB26 expression fold change: 1.398; ZBTB34 expression fold change: 1.406; ZC3H4 expression fold change: 0.785; ZC3H7A expression fold change: 0.841; ZC3H8 Mean fold change: 1.710; ZC3H14 expression fold change: 1.133; ZCCHC4 expression fold change: 1.276; ZCCHC8 expression fold change: 1.219; ZCCHC9 expression fold change: 1.340; ZFAND1 Mean fold change: 1.472; ZFP30 expression fold change: 1.219; ZFP36L2 expression fold change: 1.274; ZFP64 expression fold change: 1.227; ZFP161 Mean fold change: 1.683; ZFYVE20 expression fold change: 1.201; ZFYVE27 expression fold change: 1.318; ZHX2 Mean fold change: 1.409; ZIC2 Mean fold change: 1.423; ZNF12 expression fold change: 1.245; ZNF25 Mean fold change: 1.879; ZNF28 expression fold change: 1.179; ZNF91 expression fold change: 1.253; ZNF133 expression fold change: 1.224; ZNF184 expression fold change: 1.308; ZNF193 expression fold change: 1.323; ZNF195 expression fold change: 1.289; ZNF217 Mean fold change: 1.446; ZNF239 Mean fold change: 1.543; ZNF252 Mean fold change: 1.609; ZNF295 Mean fold change: 1.482; ZNF319 expression fold change: 1.386; ZNF320 expression fold change: 1.362; ZNF354A expression fold change: 1.350; ZNF354B Mean fold change: 1.466; ZNF410 Mean fold change: 1.435; ZNF419 Mean fold change: 1.789; ZNF433 Mean fold change: 1.676; ZNF445 expression fold change: 1.297; ZNF493 Mean fold change: 1.482; ZNF500 expression fold change: 1.175; ZNF547 expression fold change: 1.209; ZNF554 expression fold change: 1.212; ZNF558 Mean fold change: 1.502; ZNF566 expression fold change: 1.349; ZNF567 expression fold change: 1.133; ZNF592 expression fold change: 1.148; ZNF619 expression fold change: 1.402; ZNF664 expression fold change: 1.294; ZNF669 expression fold change: 1.198; ZNF700 expression fold change: 1.242; ZNF706 expression fold change: 1.373; ZNF746 expression fold change: 1.115; ZNF747 expression fold change: 1.143; ZNF764 expression fold change: 1.241; ZNF770 Mean fold change: 1.508; ZNF780A expression fold change: 1.192; ZNF780B expression fold change: 1.397; ZNF800 expression fold change: 1.234; ZRSR2 expression fold change: 1.249; ZSCAN12 Mean fold change: 1.516; ZSCAN30 Mean fold change: 1.472; ZSWIM7 expression fold change: 1.339; fold change in expression of gene APBB1: 0.456; fold change in expression of gene C19orf21: 0.393; fold change in expression of gene CACNG4: 0.431; fold change in expression of gene CAV1: 0.418; fold change in expression of gene CDKN2AIP: 0.467; fold change in expression of gene CITED2: 0.434; fold change in expression of gene COL9A3: 0.376; fold change in expression of gene CRISPLD2: 0.367; fold change in expression of gene CSDC2: 0.362; fold change in expression of gene CTGF: 0.371; fold change in expression of gene CYR61: 0.369
